This passage reports CMC and EC50 results from patent publication US10471127B2, “Peptide pharmaceuticals for insulin resistance” (Mederis Diabetes, LLC, priority 2011, dated 2019).

The EC50 is the concentration that produces a half-maximal response.

T1 sequence (P47871 26-477): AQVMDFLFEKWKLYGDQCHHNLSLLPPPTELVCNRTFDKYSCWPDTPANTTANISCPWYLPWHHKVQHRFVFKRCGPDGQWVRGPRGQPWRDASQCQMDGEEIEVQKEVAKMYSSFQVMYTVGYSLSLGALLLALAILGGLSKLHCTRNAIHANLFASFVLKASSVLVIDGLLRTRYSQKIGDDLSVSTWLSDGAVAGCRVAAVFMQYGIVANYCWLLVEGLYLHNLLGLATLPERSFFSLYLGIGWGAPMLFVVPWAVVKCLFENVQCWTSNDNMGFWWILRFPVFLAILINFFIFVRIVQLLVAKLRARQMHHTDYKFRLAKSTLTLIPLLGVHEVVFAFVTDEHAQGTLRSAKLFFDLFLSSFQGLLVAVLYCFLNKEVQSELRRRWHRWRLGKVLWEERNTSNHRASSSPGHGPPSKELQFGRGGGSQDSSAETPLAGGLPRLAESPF

System in one data set: not given
Test: not given
The conditions noted are these: in water; cited from earlier work.
With `CCCCCCCCO[C@@H]1O[C@H](CO)[C@@H](O[C@H]2O[C@H](CO)[C@@H](O)[C@H](O)[C@H]2O)[C@H](O)[C@H]1O` [Octyl maltoside], the CMC was 19.5 mM. Regarding `CCCCCCCCCCCCCCO[C@@H]1O[C@H](CO)[C@@H](O[C@@H]2O[C@@H](CO)[C@H](O)[C@@H](O)[C@@H]2O)[C@H](O)[C@H]1O` (stereo in doubt) [Tetradecyl maltoside], the CMC is recorded as 0.01 mM. For `CCCCCCCCCCCCCO[C@@H]1O[C@H](CO)[C@@H](OC2OC(CO)C(O)C(O)C2O)[C@H](O)[C@H]1O` (stereo in doubt) [Tridecyl maltoside], the CMC is on record as 0.03 mM. As to `CCCCCCCCCCO[C@@H]1O[C@H](CO)[C@@H](O[C@H]2O[C@H](CO)[C@@H](O)[C@H](O)[C@H]2O)[C@H](O)[C@H]1O` [Decyl maltoside], the CMC is reported as 1.8 mM. Consider Sucrose dodecanoate, for which the CMC was 0.3 mM. As for `CCCCCCCCCCCCO[C@@H]1O[C@H](CO)[C@@H](O[C@H]2O[C@H](CO)[C@@H](O)[C@H](O)[C@H]2O)[C@H](O)[C@H]1O` [Dodecyl-β-D-maltoside], the CMC is recorded as 0.17 mM.

Another data set has as its target T1, glucagon R (Homo sapiens, UniProt P47871).
T1 construct: Cerep SA
Description: glucagon cellular assay, stimulation of cAMP levels (Cerep SA). The class given is cell-based. The conditions noted are these: cAMP generated in cells; n.c. means EC50 not calculable.
Description: Compounds were weighed precisely in an amount of approximately 1 mg and assayed in standard cellular assays (Cerep SA). The readout is the amount of cAMP generated in the cells treated with the test compounds, in either agonist or antagonist mode.
In the case of `CCCCCCCCCCCCO[C@@H]1O[C@H](C(=O)NCCCC[C@H](NC(=O)[C@@H]2CCCCNC(=O)CC[C@H](NC(=O)[C@H](CC(=O)O)NC(=O)[C@H](CC(C)C)NC(=O)[C@H](Cc3ccc(O)cc3)NC(=O)[C@H](CCCCN)NC(=O)[C@H](CO)NC(=O)[C@H](Cc3ccc(O)cc3)NC(=O)[C@H](CC(=O)O)NC(=O)[C@H](CO)NC(=O)[C@@H](NC(=O)[C@H](Cc3ccccc3)NC(=O)[C@@H](NC(=O)CNC(=O)[C@H](CCC(N)=O)NC(=O)C(C)(C)NC(=O)[C@@H](N)Cc3c[nH]cn3)[C@@H](C)O)[C@@H](C)O)C(=O)N[C@@H](CCCNC(=N)N)C(=O)N[C@@H](C)C(=O)N[C@@H](C)C(=O)N2)C(=O)N[C@@H](Cc2ccccc2)C(=O)NC(C)(C)C(N)=O)[C@@H](O)[C@H](O)[C@H]1O` [EU-A455], the EC50 was 770 nM.
